≈ marks a conversion by molar mass, not a printed value.
The compounds below were run on HeLa cells (assay: Inhibitory effects of compounds on HeLa cell proliferation in vitro (96 h)). Conditions: Homo sapiens, exponentially growing, concentration at 50% inhibition of cell growth.
Assay type: cell-based
Protocol: INHIBITORY EFFECTS OF COMPOUNDS ON HeLa CELL PROLIFERATION The inhibitory effect of various compounds of formula (1) on HeLa cell proliferation invitro was determined according to the method described by Sunkara et al. [J. Natl. Cancer Instit. 70, 505-509 (1983)]. Exponentially growing HeLa cells were incubated in the presence or absence of various concentrations of test compounds for 96 hours. IC50 values were calculated which represent the test compound concentration at 50% inhibition of cell growth.

| Compound | IC50 [µg/mL] |
| --- | --- |
| Nc1ncnc2c1ncn2CC/C(=C/F)CO [Compound B, (Z)-4-(Adenin-9-yl)-2-hydroxymethyl-1-fluorobut-1-ene] | 1 (≈ 4.22 µM) |
| Nc1ncnc2c1ncn2CC/C(=C\F)CO [Compound A, (E)-4-(Adenin-9-yl)-2-hydroxymethyl-1-fluorobut-1-ene] | 0.25 (≈ 1.05 µM) |
| C=C(CO)CCn1cnc2c(N)ncnc21 [Compound C, 4-(Adenin-9-yl)-2-hydroxymethylbut-1-ene] | 0.6 (≈ 2.74 µM) |

Source: US6017923A, “Carbo-acyclic nucleoside derivatives as antiviral and antineoplastic agents” (Hoechst Marion Roussel, Inc., priority 1996, dated 2000)
